Results taken from the supplement of paper PMC10331698.
± gives the standard deviation of the averaged measurements.

How the values were obtained:
Test in all cases: level (log10 ratio to DMSO vehicle control); higher = higher biomarker level / cell amount than vehicle control
[1] = compound: CCOC(=O)CC(=O)C(F)(F)C(F)(F)F [Ethyl pentafluoropropionyl acetate] (in DMSO)
Protocol: (§1)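 BioMAP Diversity Plus panel of 12 human primary cell co-culture systems (3C, 4H, LPS, SAg, BT, BF4T, BE3C, CASM3C, HDF3CGF, KF3CT, MyoF, Mphg). Compounds were added 1 h before stimulation and left for 24 h (MyoF 48 h; BT 72 h for soluble read-outs or 6 d for IgG). Biomarkers were read by ELISA, cytotoxicity by SRB, PBMC viability and proliferation by Alamar Blue. Each well value was divided by the mean of 8 DMSO control wells on the same plate and log10 transformed; duplicate blinded samples were tested at 4 concentrations.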

[2] = compound: C[C@@H]1C[C@H]2[C@@H]3CCC4=CC(=O)C=C[C@]4(C)[C@@]3(F)[C@@H](O)C[C@]2(C)[C@@]1(O)C(=O)COP(=O)(O)O [Dexamethasone sodium phosphate] (in DMSO)
Protocol: as §1

Octafluoroadipic acid = compound: O=C(O)C(F)(F)C(F)(F)C(F)(F)C(F)(F)C(=O)O [Octafluoroadipic acid] (in DMSO)
Protocol: as §1

[3] = compound: O=C(O)C(F)(F)OC(F)(F)C(F)(F)OC(F)(F)C(F)(F)OC(F)(F)C(F)(F)C(F)(F)C(F)(F)F [Perfluoro-3,6,9-trioxatridecanoic acid] (in DMSO); details: 6700 nM
Protocol: as §1

[4] = compound: O=S(=O)(O)CCC(F)(F)C(F)(F)C(F)(F)C(F)(F)C(F)(F)C(F)(F)C(F)(F)C(F)(F)F [8:2 Fluorotelomer sulfonic acid] (in DMSO)
Protocol: as §1

[5] = compound: OCC(F)(F)C(F)(F)C(F)(F)C(F)(F)C(F)(F)C(F)(F)CO [1H,1H,8H,8H-Perfluorooctane-1,8-diol] (in DMSO)
Protocol: as §1

[6] = compound: OCC(F)(F)C(F)(F)C(F)(F)C(F)F [1H,1H,5H-Perfluoropentanol] (in DMSO)
Protocol: as §1

Test System	level (log10) ([1]; 6700 nM)	level (log10) ([1]; 20000 nM)	level (log10) ([1]; 60000 nM)	level (log10) ([2]; 1500 nM)	level (log10) ([2]; 4400 nM)	level (log10) ([2]; 13000 nM)	level (log10) ([2]; 40000 nM)	level (log10) (Octafluoroadipic acid; 6700 nM)	level (log10) (Octafluoroadipic acid; 20000 nM)	level (log10) (Octafluoroadipic acid; 60000 nM)	level (log10) [3]	level (log10) ([4]; 6700 nM)	level (log10) ([4]; 20000 nM)	level (log10) ([4]; 60000 nM)	level (log10) ([5]; 6700 nM)	level (log10) ([5]; 20000 nM)	level (log10) ([5]; 60000 nM)	level (log10) ([6]; 6700 nM)	level (log10) ([6]; 20000 nM)	level (log10) ([6]; 60000 nM)
BE3C:uPA	-0.0105 ± 0.013	-0.011 ± 0.013	-0.0195 ± 0.0035	-0.0165 ± 0.005	-0.0125 ± 0.021	-0.036 ± 0.027	-0.051 ± 0.038	-0.002 ± 0.02	-0.0135 ± 0.005	-0.0005 ± 0.0021	-0.349 ± 0.005	0.006 ± 0.0071	0.0055 ± 0.0035	-0.002 ± 0.0028	-0.012 ± 0.0071	-0.0125 ± 0.005	-0.009 ± 0.024	-0.0105 ± 0.016	0.001 ± 0.011	0.002 ± 0.041
CASM3C:CCL2/MCP-1	-0.001 ± 0.0028	0.003 ± 0.0057	0.009 ± 0.027	-0.0825 ± 0.05	-0.105 ± 0.037	-0.113 ± 0.0042	-0.086 ± 0.047	-0.0085 ± 0.0092	-0.0065 ± 0.011	0.015 ± 0.038	-0.0045 ± 0.023	-0.0095 ± 0.00071	-0.003 ± 0.0057	0.016 ± 0.04	-0.0175 ± 0.011	-0.024 ± 0.0057	0.0015 ± 0.019	-0.0115 ± 0.012	-0.0105 ± 0.013	-0.0015 ± 0.011
CASM3C:CD87/uPAR	0.0015 ± 0.028	-0.013 ± 0.0057	-0.01 ± 0.017	0.0255 ± 0.011	0.0045 ± 0.005	-0.026 ± 0.024	-0.0215 ± 0.076	-0.012 ± 0.0057	-0.014 ± 0.0085	-0.0015 ± 0.0064	0.0205 ± 0.018	0.025 ± 0.0099	0.022 ± 0.0014	-0.0055 ± 0.016	0.0025 ± 0.0021	-0.0325 ± 0.0092	-0.036 ± 0.038	0.0065 ± 0.021	0.025 ± 0.017	0.005 ± 0.021
CASM3C:CD106/VCAM-1	-0.01 ± 0.0085	-0.011 ± 0.0085	-0.01 ± 0.023	0.117 ± 0.06	0.11 ± 0.049	0.0875 ± 0.016	0.076 ± 0.054	-0.0055 ± 0.011	-0.011 ± 0.013	-0.019	-0.035 ± 0.024	0.0015 ± 0.029	-0.0425 ± 0.025	-0.071 ± 0.033	0.0055 ± 0.022	0.02 ± 0.0028	0.05 ± 0.0085	0.0335 ± 0.023	0.027 ± 0.065	0.0395 ± 0.013
CASM3C:CD141/Thrombomodulin	-0.005 ± 0.0071	-0.0005 ± 0.00071	-0.0115 ± 0.018	0.107 ± 0.11	0.0895 ± 0.067	0.073 ± 0.041	0.123 ± 0.011	0.0115 ± 0.0021	0.0105 ± 0.021	0.0065 ± 0.022	-0.0345 ± 0.0064	-0.0045 ± 0.029	-0.026 ± 0.04	-0.0265 ± 0.0035	-0.018 ± 0.0071	-0.02 ± 0.014	-0.0005 ± 0.026	0.046	0.018 ± 0.017	0.032 ± 0.023
CASM3C:CD142/Tissue Factor	-0.0235 ± 0.046	-0.008 ± 0.031	0.0035 ± 0.012	0.101 ± 0.034	0.099 ± 0.042	0.0875 ± 0.023	0.079 ± 0.0028	-0.011 ± 0.0071	-0.0045 ± 0.0092	-0.0145 ± 0.00071	0.013 ± 0.02	-0.045 ± 0.0042	-0.067 ± 0.027	-0.0195 ± 0.03	0 ± 0.014	0 ± 0.023	0.012 ± 0.041	-0.0605 ± 0.044	-0.0695 ± 0.035	-0.0195 ± 0.094
CASM3C:CXCL8/IL-8	0.0045 ± 0.0035	0	0.0035 ± 0.0078	-0.075 ± 0.044	-0.0815 ± 0.023	-0.092 ± 0.0057	-0.084 ± 0.0042	-0.0005 ± 0.0092	-0.002 ± 0.0071	0.0045 ± 0.022	0.002 ± 0.0085	0.019 ± 0.018	-0.0065 ± 0.012	0.0035 ± 0.013	-0.007 ± 0.027	-0.0135 ± 0.022	0.007 ± 0.011	-0.0025 ± 0.021	0.0065 ± 0.047	0.015 ± 0.059
CASM3C:CXCL9/MIG	-0.018 ± 0.03	-0.0145 ± 0.0064	-0.0035 ± 0.0092	0.0525 ± 0.037	0.038 ± 0.0085	0.0335 ± 0.0021	0.0595 ± 0.025	-0.0055 ± 0.0078	-0.01 ± 0.0071	0.001 ± 0.021	-0.01 ± 0.0014	-0.03 ± 0.02	-0.032 ± 0.0071	0 ± 0.021	0.0035 ± 0.012	0.016 ± 0.0028	0.0235 ± 0.021	0.021 ± 0.03	0.0095 ± 0.037	0.0005 ± 0.093
CASM3C:HLA-DR	-0.0125 ± 0.0064	-0.0185 ± 0.015	-0.015 ± 0.014	0.0495 ± 0.06	0.0425 ± 0.022	0.02 ± 0.013	0.0355 ± 0.023	-0.0035 ± 0.019	-0.0095 ± 0.032	-0.0025 ± 0.0078	-0.0005 ± 0.0078	0.0155 ± 0.023	-0.009 ± 0.024	-0.015 ± 0.017	-0.0005 ± 0.018	-0.026 ± 0.016	-0.014 ± 0.014	0.016 ± 0.0028	-0.014 ± 0.064	0.035 ± 0.025
CASM3C:IL-6	-0.022 ± 0.011	-0.021 ± 0.023	0.009 ± 0.057	-0.166 ± 0.096	-0.232 ± 0.023	-0.246 ± 0.015	-0.189 ± 0.092	-0.0225 ± 0.0092	-0.0115 ± 0.0064	0.013 ± 0.061	-0.0055 ± 0.061	0.0025 ± 0.029	-0.0075 ± 0.0064	-0.0005 ± 0.018	-0.014 ± 0.0014	-0.02 ± 0.0099	-0.0005 ± 0.04	0.001 ± 0.041	-0.0005 ± 0.021	0.0255 ± 0.036
CASM3C:LDLR	-0.0125 ± 0.019	-0.002 ± 0.0085	0.0035 ± 0.013	0.05 ± 0.0057	0.03 ± 0.033	0.0065 ± 0.03	0.031 ± 0.05	-0.0215 ± 0.023	-0.008 ± 0.018	0.029 ± 0.047	-0.029 ± 0.011	-0.0005 ± 0.0064	0.0135 ± 0.013	0.0415 ± 0.026	0.0045 ± 0.005	-0.0015 ± 0.0035	0.0075 ± 0.032	-0.0555 ± 0.086	-0.0425 ± 0.044	-0.0125 ± 0.00071
CASM3C:M-CSF	-0.0145 ± 0.00071	-0.0175 ± 0.0064	-0.0025 ± 0.028	0.157 ± 0.031	0.155 ± 0.023	0.141 ± 0.0085	0.151 ± 0.0092	-0.039 ± 0.02	-0.024 ± 0.042	0.0155 ± 0.1	0.0215 ± 0.013	0.0005 ± 0.015	-0.0115 ± 0.0021	0.037 ± 0.028	-0.0185 ± 0.035	-0.0215 ± 0.0078	-0.012 ± 0.035	0.025 ± 0.024	-0.0195 ± 0.022	0.0045 ± 0.063
CASM3C:PAI-I	0.002 ± 0.0057	0.0055 ± 0.012	0.007 ± 0.0014	0.011 ± 0.018	0.0125 ± 0.018	0.0145 ± 0.015	0.015 ± 0.0028	0.001 ± 0.0057	-0.0015 ± 0.00071	0.002 ± 0.013	0.0015 ± 0.005	-0.0015 ± 0.019	0.012 ± 0.018	0.0095 ± 0.012	-0.006 ± 0.0099	-0.006	0.012 ± 0.0042	-0.008 ± 0.0028	-0.0015 ± 0.0035	0.005 ± 0.0071
